Source: PMC13136073, “Discovery of 4‐Quinazolinone‐Containing Phenylalanine Derivatives as Potent, Resistant‐Tolerant HIV Capsid Inhibitors” (MedComm, 2026)

Assay: Stability in human liver microsomes
Assay type: in vitro ADME
Conditions: HLM, scaled

CLint(liver): 200.0 mL/min/kg
Structure (SMILES): O=C(O)Cc1ccccc1Nc1c(Cl)cccc1Cl [Diclofenac, diclofenac]
